Results published in publication PMC12514245, “Impaired migration and lung invasion of human melanoma by a novel small molecule targeting the transmembrane domain of death receptor p75^NTR” (EMBO Molecular Medicine, 2025).

Test system: A875 NT cells
Assay: Wound healing cell motility assay, A875 NT
Type: cell-based, human
Conditions: for Wound area (Fold): A875 NT
Method: For wound healing assay, cells were grown until confluency and subjected to a wound across the cell mono-layer. Cells were then incubated with serum-free media either with DMSO or a small molecule (with or without 5 µM Q_VD_poH) and imaged at specific time-points. Cell migration is reflected as fold change in wound area over time.

SMILES: Cc1cccc(-c2cncc(Nc3ccc(Br)c(Cl)c3Cl)n2)c1C [Np75-4A22]
- Wound area (Fold) (1uM, 0 h, n2): 0.9804 Fold
- Wound area (Fold) (1uM, 0 h, n3): 1.057 Fold
- Wound area (Fold) (1uM, 3 h, Mean): 0.967 Fold
- Wound area (Fold) (1uM, 3 h, n1): 0.9475 Fold
- Wound area (Fold) (1uM, 3 h, n2): 1.012 Fold
- Wound area (Fold) (1uM, 3 h, n3): 0.9416 Fold
- Wound area (Fold) (1uM, 6 h, Mean): 0.905 Fold
- Wound area (Fold) (1uM, 6 h, n1): 0.8734 Fold
- Wound area (Fold) (1uM, 6 h, n2): 0.9482 Fold
- Wound area (Fold) (1uM, 6 h, n3): 0.8944 Fold
- Wound area (Fold) (1uM, 9 h, Mean): 0.855 Fold
- Wound area (Fold) (1uM, 9 h, n1): 0.8188 Fold
- Wound area (Fold) (1uM, 9 h, n2): 0.9061 Fold
- Wound area (Fold) (1uM, 9 h, n3): 0.8389 Fold
- Wound area (Fold) (1uM, 12 h, Mean): 0.827 Fold
- Wound area (Fold) (1uM, 12 h, n1): 0.7941 Fold
- Wound area (Fold) (1uM, 12 h, n2): 0.8768 Fold
- Wound area (Fold) (1uM, 12 h, n3): 0.8105 Fold
- Wound area (Fold) (1uM, 15 h, Mean): 0.795 Fold
- Wound area (Fold) (1uM, 15 h, n1): 0.7522 Fold
- Wound area (Fold) (1uM, 15 h, n2): 0.8472 Fold
- Wound area (Fold) (1uM, 15 h, n3): 0.7844 Fold
- Wound area (Fold) (1uM, 18 h, Mean): 0.773 Fold
- Wound area (Fold) (1uM, 18 h, n1): 0.739 Fold
- Wound area (Fold) (1uM, 18 h, n2): 0.8198 Fold
- Wound area (Fold) (1uM, 18 h, n3): 0.7589 Fold
- Wound area (Fold) (1uM, 21 h, Mean): 0.762 Fold
- Wound area (Fold) (1uM, 21 h, n1): 0.7242 Fold
- Wound area (Fold) (1uM, 21 h, n2): 0.8105 Fold
- Wound area (Fold) (1uM, 21 h, n3): 0.7528 Fold
- Wound area (Fold) (1uM, 24 h, Mean): 0.743 Fold
- Wound area (Fold) (1uM, 24 h, n1): 0.7122 Fold
- Wound area (Fold) (1uM, 24 h, n2): 0.7843 Fold
- Wound area (Fold) (1uM, 24 h, n3): 0.7318 Fold
- Wound area (Fold) (2uM, 0 h, Mean): 1.000 Fold
- Wound area (Fold) (2uM, 0 h, n1): 1.119 Fold
- Wound area (Fold) (2uM, 0 h, n2): 0.971 Fold
- Wound area (Fold) (2uM, 0 h, n3): 0.910 Fold
- Wound area (Fold) (2uM, 3 h, Mean): 0.939 Fold
- Wound area (Fold) (2uM, 3 h, n1): 0.920 Fold
- Wound area (Fold) (2uM, 3 h, n2): 0.934 Fold
- Wound area (Fold) (2uM, 3 h, n3): 0.964 Fold
- Wound area (Fold) (2uM, 6 h, Mean): 0.916 Fold
- Wound area (Fold) (2uM, 6 h, n1): 0.889 Fold
- Wound area (Fold) (2uM, 6 h, n2): 0.924 Fold
- Wound area (Fold) (2uM, 6 h, n3): 0.935 Fold
- Wound area (Fold) (2uM, 9 h, Mean): 0.883 Fold
- Wound area (Fold) (2uM, 9 h, n1): 0.869 Fold
- Wound area (Fold) (2uM, 9 h, n2): 0.889 Fold
- Wound area (Fold) (2uM, 9 h, n3): 0.891 Fold
- Wound area (Fold) (2uM, 12 h, Mean): 0.872 Fold
- Wound area (Fold) (2uM, 12 h, n1): 0.845 Fold
- Wound area (Fold) (2uM, 12 h, n2): 0.886 Fold
- Wound area (Fold) (2uM, 12 h, n3): 0.885 Fold
- Wound area (Fold) (2uM, 15 h, Mean): 0.864 Fold
- Wound area (Fold) (2uM, 15 h, n1): 0.827 Fold
- Wound area (Fold) (2uM, 15 h, n2): 0.886 Fold
- Wound area (Fold) (2uM, 15 h, n3): 0.880 Fold
- Wound area (Fold) (2uM, 18 h, Mean): 0.859 Fold
- Wound area (Fold) (2uM, 18 h, n1): 0.819 Fold
- Wound area (Fold) (2uM, 18 h, n2): 0.879 Fold
- Wound area (Fold) (2uM, 18 h, n3): 0.879 Fold
- Wound area (Fold) (2uM, 21 h, Mean): 0.856 Fold
- Wound area (Fold) (2uM, 21 h, n1): 0.813 Fold
- Wound area (Fold) (2uM, 21 h, n2): 0.878 Fold
- Wound area (Fold) (2uM, 21 h, n3): 0.878 Fold
- Wound area (Fold) (2uM, 24 h, Mean): 0.847 Fold
- Wound area (Fold) (2uM, 24 h, n1): 0.809 Fold
- Wound area (Fold) (2uM, 24 h, n2): 0.868 Fold
- Wound area (Fold) (2uM, 24 h, n3): 0.864 Fold
- wound healing assay (low micromolar and submicromolar concentrations): considerable inhibitory activity
